In patent US10227346B2, “Methyl- and trifluoromethyl-substituted pyrrolopyridine modulators of RORC2 and methods of use therof” (Pfizer Inc., priority 2014, dated 2019):

What follows are compounds tested on IL-17 production from human Th17 cells (assay: IL-17 production from human Th17 cells). Conditions: IL-17A in supernatant by ELISA after 6 days, human CD4+ T cells under Th17 differentiation.
Format: cell-based
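Also: purified human CD4+ T cells activated with anti-CD3 plus anti-CD28 and a Th17-inducing cytokine cocktail, with compound at serial concentrations versus no compound.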

Compound | IC50 [nM]
CC(C(=O)N1CCC(c2cn(C)c3ncc(NC(=O)c4cccc(C#N)c4)c(C(F)(F)F)c23)CC1)C1CC1 (racemic) [Example 25, Rac-3-cyano-N-(3-(1-(2-cyclopropylpropanoyl)piperidin-4-yl)-1-methyl-4-(trifluoromethyl)-1H-pyrrolo[2,3-b]pyridin-5-yl)benzamide] | 14.1
Cc1c(NC(=O)c2cccc(C#N)c2)cnc2c1c([C@H]1C[C@H](C)N(C(=O)C3CCCC3)C[C@H]1C)cn2C (relative stereo) [Example 97, rel-3-cyano-N-(3-((2S,4S,5S)-1-(cyclopentanecarbonyl)-2,5-dimethylpiperidin-4-yl)-1,4-dimethyl-1H-pyrrolo[2,3-b]pyridin-5-yl)benzamide] | 124
Cn1cc(C2CCN(C(=O)[C@H]3CCCS3)CC2)c2c(C(F)(F)F)c(NC(=O)c3cccc(C#N)c3)cnc21 (single isomer, unassigned) [Example 28] | 118
Cc1c(NC(=O)c2cccc(C#N)c2)cnc2c1c(C1CCN(C(=O)[C@H]3CCC[C@@H]3C)CC1)cn2C (single isomer, unassigned) [Example 46] | 57.4
Cc1c(NC(=O)c2cccc(C#N)c2)cnc2c1c(C1CCN(C(=O)[C@@H]3CCC[C@@H]3C(C)C)CC1)cn2C (single isomer, unassigned) [Example 48] | 13.4
Cn1cc(C2CCN(C(=O)C3CCCC3)CC2)c2c(C(F)(F)F)c(NC(=O)c3ccc(F)c(C#N)c3)cnc21 [Example 3, 3-cyano-N-(3-(1-(cyclopentanecarbonyl)piperidin-4-yl)-1-methyl-4-(trifluoromethyl)-1H-pyrrolo[2,3-b]pyridin-5-yl)-4-fluorobenzamide] | 39.2
CC(C)C(=O)N1CCC(c2cn(C)c3ncc(NC(=O)c4ccc(F)c(C#N)c4)c(C(F)(F)F)c23)CC1 [Example 9, 3-cyano-4-fluoro-N-(3-(1-isobutyrylpiperidin-4-yl)-1-methyl-4-(trifluoromethyl)-1H-pyrrolo[2,3-b]pyridin-5-yl)benzamide] | 27.5
COc1ccc(C(=O)Nc2cnc3c(c(C4CCN(C(=O)C(C)C)CC4)cn3C)c2C(F)(F)F)cc1Cl [Example 10, 3-chloro-N-(3-(1-isobutyrylpiperidin-4-yl)-1-methyl-4-(trifluoromethyl)-1H-pyrrolo[2,3-b]pyridin-5-yl)-4-methoxybenzamide] | 51.3
CC(C)C(=O)N1CCC(c2cn(C)c3ncc(NC(=O)c4ccc(F)c(Cl)c4)c(C(F)(F)F)c23)CC1 [Example 12, 3-chloro-4-fluoro-N-(3-(1-isobutyrylpiperidin-4-yl)-1-methyl-4-(trifluoromethyl)-1H-pyrrolo[2,3-b]pyridin-5-yl)benzamide] | 57.9
COc1cc(Cl)cc(C(=O)Nc2cnc3c(c(C4CCN(C(=O)C(C)C)CC4)cn3C)c2C(F)(F)F)c1 [Example 13, 3-chloro-N-(3-(1-isobutyrylpiperidin-4-yl)-1-methyl-4-(trifluoromethyl)-1H-pyrrolo[2,3-b]pyridin-5-yl)-5-methoxybenzamide] | 48.7
Cn1cc(C2CCN(C(=O)CC3CCC3)CC2)c2c(C(F)(F)F)c(NC(=O)c3cccc(C#N)c3)cnc21 [Example 18, 3-cyano-N-(3-(1-(2-cyclobutylacetyl)piperidin-4-yl)-1-methyl-4-(trifluoromethyl)-1H-pyrrolo[2,3-b]pyridin-5-yl)benzamide] | 10.8
Cn1cc(C2CCN(C(=O)CC3CCCCC3)CC2)c2c(C(F)(F)F)c(NC(=O)c3cccc(C#N)c3)cnc21 [Example 20, 3-cyano-N-(3-(1-(2-cyclohexylacetyl)piperidin-4-yl)-1-methyl-4-(trifluoromethyl)-1H-pyrrolo[2,3-b]pyridin-5-yl)benzamide] | 18.5
Cn1cc(C2CCN(C(=O)CC3CC3)CC2)c2c(C(F)(F)F)c(NC(=O)c3cccc(C#N)c3)cnc21 [Example 24, 3-cyano-N-(3-(1-(2-cyclopropylacetyl)piperidin-4-yl)-1-methyl-4-(trifluoromethyl)-1H-pyrrolo[2,3-b]pyridin-5-yl)benzamide] | 17.4
Cc1cccc(F)c1C(=O)N1CCC(c2cn(C)c3ncc(NC(=O)c4cccc(C#N)c4)c(C)c23)CC1 [Example 33, 3-cyano-N-(3-(1-(2-fluoro-6-methylbenzoyl)piperidin-4-yl)-1,4-dimethyl-1H-pyrrolo[2,3-b]pyridin-5-yl)benzamide] | 13.7
Cc1c(NC(=O)c2cc(Cl)ccc2F)cnc2c1c(C1CCN(C(=O)[C@H](C)C(C)(C)C)CC1)cn2C [Example 41, (R)-5-chloro-N-(1,4-dimethyl-3-(1-(2,3,3-trimethylbutanoyl)piperidin-4-yl)-1H-pyrrolo[2,3-b]pyridin-5-yl)-2-fluorobenzamide] | 18.9
COc1cc(Cl)cc(C(=O)Nc2cnc3c(c(C4CCN(C(=O)[C@H](C)C(C)(C)C)CC4)cn3C)c2C)c1 [Example 42, (R)-3-chloro-N-(1,4-dimethyl-3-(1-(2,3,3-trimethylbutanoyl)piperidin-4-yl)-1H-pyrrolo[2,3-b]pyridin-5-yl)-5-methoxybenzamide] | 31.3
Cc1c(NC(=O)c2ccc(F)c(C#N)c2)cnc2c1c([C@@H]1CCN(C(=O)C3CCCC3)C(C)(C)C1)cn2C [Example 61, (R)-3-cyano-N-(3-(1-(cyclopentanecarbonyl)-2,2-dimethylpiperidin-4-yl)-1,4-dimethyl-1H-pyrrolo[2,3-b]pyridin-5-yl)-4-fluorobenzamide] | 25.6
COc1cc(Cl)cc(C(=O)Nc2cnc3c(c([C@@H]4CCN(C(=O)C(C)C)C(C)(C)C4)cn3C)c2C)c1 [Example 62, (R)-3-chloro-N-(3-(1-isobutyryl-2,2-dimethylpiperidin-4-yl)-1,4-dimethyl-1H-pyrrolo[2,3-b]pyridin-5-yl)-5-methoxybenzamide] | 15.8

More lines, now with the values ahead:

IC50 [nM] | Compound
8.5 | Cn1cc(C2CCN(C(=O)[C@@H]3CCCS3)CC2)c2c(C(F)(F)F)c(NC(=O)c3cccc(C#N)c3)cnc21 (single isomer, unassigned) [Example 29]
8.4 | Cc1c(NC(=O)c2cccc(C#N)c2)cnc2c1c(C1CCN(C(=O)[C@@H]3CCC[C@H]3C)CC1)cn2C (single isomer, unassigned) [Example 47]
8 | Cc1c(NC(=O)c2cccc(C#N)c2)cnc2c1c(C1CCN(C(=O)[C@@H]3CCCC3C(C)C)CC1)cn2C (stereo in doubt) [Example 49, 3-cyano-N-(3-(1-((1R,2R)-2-isopropylcyclopentane-1-carbonyl)piperidin-4-yl)-1,4-dimethyl-1H-pyrrolo[2,3-b]pyridin-5-yl)benzamide]
9.5 | CC(C)C(=O)N1CCC(c2cn(C)c3ncc(NC(=O)c4cccc(C#N)c4)c(C(F)(F)F)c23)CC1 [Example 5, 3-cyano-N-(3-(1-isobutyrylpiperidin-4-yl)-1-methyl-4-(trifluoromethyl)-1H-pyrrolo[2,3-b]pyridin-5-yl)benzamide]
7.8 | CC(C)C(=O)N1CCC(c2cn(C)c3ncc(NC(=O)c4ccc(Cl)c(C#N)c4)c(C(F)(F)F)c23)CC1 [Example 11, 4-chloro-3-cyano-N-(3-(1-isobutyrylpiperidin-4-yl)-1-methyl-4-(trifluoromethyl)-1H-pyrrolo[2,3-b]pyridin-5-yl)benzamide]
10.7 | Cn1cc(C2CCN(C(=O)[C@H]3C[C@H]4CCCC[C@H]4C3)CC2)c2c(C(F)(F)F)c(NC(=O)c3cccc(C#N)c3)cnc21 [Example 16, 3-cyano-N-(1-methyl-3-(1-((2r,3aR,7aS)-octahydro-1H-indene-2-carbonyl)piperidin-4-yl)-4-(trifluoromethyl)-1H-pyrrolo[2,3-b]pyridin-5-yl)benzamide]
9.5 | Cc1c(NC(=O)c2cccc(C#N)c2)cnc2c1c(C1CCN(C(=O)c3cccc4c3CCC4)CC1)cn2C [Example 34, 3-cyano-N-(3-(1-(2,3-dihydro-1H-indene-4-carbonyl)piperidin-4-yl)-1,4-dimethyl-1H-pyrrolo[2,3-b]pyridin-5-yl)benzamide]
9.2 | Cc1c(NC(=O)c2cccc(C#N)c2)cnc2c1c(C1CCN(C(=O)[C@H](C)C(C)C)CC1)cn2C [Example 37, (R)-3-cyano-N-(3-(1-(2,3-dimethylbutanoyl)piperidin-4-yl)-1,4-dimethyl-1H-pyrrolo[2,3-b]pyridin-5-yl)benzamide]
3.4 | Cc1c(NC(=O)c2cccc(C#N)c2)cnc2c1c(C1CCN(C(=O)[C@H](C)C34CC(C3)C4)CC1)cn2C [Example 50, (R)—N-(3-(1-(2-(bicyclo[1.1.1]pentan-1-yl)propanoyl)piperidin-4-yl)-1,4-dimethyl-1H-pyrrolo[2,3-b]pyridin-5-yl)-3-cyanobenzamide]
6.4 | Cc1c(NC(=O)c2cccc(C#N)c2)cnc2c1c(C1CCN(C(=O)[C@H](C)C3CCCC3)CC1)cn2C [Example 51, (R)-3-cyano-N-(3-(1-(2-cyclopentylpropanoyl)piperidin-4-yl)-1,4-dimethyl-1H-pyrrolo[2,3-b]pyridin-5-yl)benzamide]
5 | C[C@@H](C(=O)N1CCC(c2cn(C)c3ncc(NC(=O)c4cc(O)cc(C#N)c4)c(C(F)(F)F)c23)CC1)C(C)(C)C [Example 54, (R)-3-cyano-5-hydroxy-N-(1-methyl-4-(trifluoromethyl)-3-(1-(2,3,3-trimethylbutanoyl)piperidin-4-yl)-1H-pyrrolo [2,3-b]pyridin-5-yl)benzamide]
6 | Cn1cc(C2CCN(C(=O)C3CCCC3)CC2)c2c(C(F)(F)F)c(NC(=O)c3cc(O)cc(C#N)c3)cnc21 [Example 55, 3-cyano-N-(3-(1-(cyclopentanecarbonyl)piperidin-4-yl)-1-methyl-4-(trifluoromethyl)-1H-pyrrolo[2,3-b]pyridin-5-yl)-5-hydroxybenzamide]
4.9 | Cc1c(NC(=O)c2cc(O)cc(C#N)c2)cnc2c1c(C1CCN(C(=O)[C@H](C)C(C)(C)C)CC1)cn2C [Example 56, (R)-3-cyano-N-(1,4-dimethyl-3-(1-(2,3,3-trimethylbutanoyl)piperidin-4-yl)-1H-pyrrolo[2,3-b]pyridin-5-yl)-5-hydroxybenzamide]
9.9 | Cc1ccc(C(=O)Nc2cnc3c(c([C@@H]4CCN(C(=O)C5CCCC5)C(C)(C)C4)cn3C)c2C)cc1C#N [Example 59, (R)-3-cyano-N-(3-(1-(cyclopentanecarbonyl)-2,2-dimethylpiperidin-4-yl)-1,4-dimethyl-1H-pyrrolo[2,3-b]pyridin-5-yl)-4-methylbenzamide]
